A short description of this data set: Solubility of vilazodone under different physiological pH conditions. The format is physicochemical. The method, then: The inventors discovered that a main cause of the difference in vilazodone bioavailability between fasted and fed conditions is the significant difference in the solubility of vilazodone under different physiological pH conditions. Vilazodone is mainly absorbed in the small intestine where the physiological pH is about 6.8, and the solubility of vilazodone under such a pH is very low. Thus the amount and rate of vilazodone that is dissolved in the stomach will affect its absorption in the small intestine. […] However, in a 0.1 N HCl solution (simulated stomach fasted conditions), the solubility of vilazodone is poor, resulting in a significant reduction in bioavailability.

Each structure is given as a SMILES string.

`N#Cc1ccc2[nH]cc(CCCCN3CCN(c4ccc5oc(C(N)=O)cc5c4)CC3)c2c1` [Vilazodone, 5-(4-[4-(5-cyano-1H-indol-3-yl)butyl]-1-piperazinyl)-2-benzofuran-2-carboxamide]: the solubility of vilazodone entry reads like this: (0.1 N HCl solution (simulated stomach fasted conditions)) “poor”; (pH 3.1 buffer (simulated stomach fed conditions)) “dissolves well”; (physiological pH about 6.8 (small intestine)) “very low”.
